# Measurements from PubChem BioAssay AID330 (DTP/NCI, 2004).
# Values joined by “and” are separate entries in the source; they are usually repeats but may differ in a detail not shown here. Equal values may be shown once. Toxic doses and inconclusive results are not listed. Peptide text beside a SMILES is read from it. * marks the point of attachment. Cbz = O=C(OCc1ccccc1)*
# Tested on: P388 leukemia ip, CD2F1 mice, survival T/C
# Assay: NCI In Vivo Anticancer Drug Screen. Data for tumor model P388 Leukemia (intraperitoneal) in CD2F1 (CDF1) mice
# Conditions: endpoint: median survival time, higher = longer survival
# Procedure, shortened: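 Mice carrying the transplanted tumor received test compound or vehicle. Survival was recorded in each group, and the value is the treated-group measurement divided by that of the vehicle-treated control group.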
# [1] = dose: 50.0 mg/kg/injection, schedule: Q01DX009 (ip), vehicle: saline with Tween-80
# [2] = dose: 100.0 mg/kg/injection, schedule: Q01DX009 (ip), vehicle: saline with Tween-80
# [3] = dose: 50.0 mg/kg/injection, schedule: Q01DX005 (ip), vehicle: saline with Tween-80
# [4] = dose: 100.0 mg/kg/injection, schedule: Q01DX005 (ip), vehicle: saline with Tween-80
# [5] = dose: 50.0 mg/kg/injection, schedule: Q01DX009 (ip), vehicle: Klucel (hydroxypropylcellulose) (HPC)
# [6] = dose: 100.0 mg/kg/injection, schedule: Q01DX009 (ip), vehicle: Klucel (hydroxypropylcellulose) (HPC)
# [7] = dose: 200.0 mg/kg/injection, schedule: Q01DX009 (ip), vehicle: Klucel (hydroxypropylcellulose) (HPC)
# [8] = dose: 60.0 mg/kg/injection, schedule: Q01DX005 (ip), vehicle: saline
# [9] = dose: 120.0 mg/kg/injection, schedule: Q01DX005 (ip), vehicle: saline
# [10] = dose: 240.0 mg/kg/injection, schedule: Q01DX005 (ip), vehicle: saline
# [11] = dose: 60.0 mg/kg/injection, schedule: Q01DX005 (ip), vehicle: saline with Tween-80
# [12] = dose: 120.0 mg/kg/injection, schedule: Q01DX005 (ip), vehicle: saline with Tween-80
# [13] = dose: 240.0 mg/kg/injection, schedule: Q01DX005 (ip), vehicle: saline with Tween-80
# [14] = dose: 6.25 mg/kg/injection, schedule: Q01DX009 (ip), vehicle: saline with Tween-80
# [15] = dose: 12.5 mg/kg/injection, schedule: Q01DX009 (ip), vehicle: saline with Tween-80
# [16] = dose: 25.0 mg/kg/injection, schedule: Q01DX009 (ip), vehicle: saline with Tween-80
smiles,measurement,setting,value
CCCCCCC(=O)/C=C/c1cccc(OCOCC)c1,T/C,[1],111 % of control and 113 % of control and 122 % of control
same,T/C,[2],115 % of control and 122 % of control
same,T/C,"dose: 200.0 mg/kg/injection, schedule: Q01DX009 (ip), vehicle: saline with Tween-80",108 % of control and 119 % of control
CC(=O)OCC12C=CC(O1)C1C(=O)OC(=O)C12 (stereo not given),T/C,[3],94 % of control
same,T/C,[4],88 % of control
CCN(CC)C1=NS(=O)(=O)c2ccccc2C(c2ccccc2)=C1C,T/C,"dose: 25.0 mg/kg/injection, schedule: Q04DX003 (ip), vehicle: Klucel (hydroxypropylcellulose) (HPC)",99 % of control
same,T/C,"dose: 50.0 mg/kg/injection, schedule: Q04DX003 (ip), vehicle: Klucel (hydroxypropylcellulose) (HPC)",99 % of control
same,T/C,"dose: 100.0 mg/kg/injection, schedule: Q04DX003 (ip), vehicle: Klucel (hydroxypropylcellulose) (HPC)",100 % of control and 95 % of control
same,T/C,"dose: 400.0 mg/kg/injection, schedule: Q04DX003 (ip), vehicle: Klucel (hydroxypropylcellulose) (HPC)",87 % of control
CCOC(=O)c1cnc2cc3c(cc2c1Nc1ccc2c(c1)OCO2)OCO3,T/C,"dose: 60.0 mg/kg/injection, schedule: Q01DX005 (ip), vehicle: Klucel + Tween-80",108 % of control
same,T/C,"dose: 120.0 mg/kg/injection, schedule: Q01DX005 (ip), vehicle: Klucel + Tween-80",109 % of control
CC(C)N1CC(CCO)C(c2ccccc2)(c2ccccc2)C1 (stereo not given),T/C,[5],99 % of control
same,T/C,[6],97 % of control
same,T/C,[7],106 % of control
CCCCCCNP(=O)(N1CC1)N1CC1,T/C,"dose: 3.13 mg/kg/injection, schedule: Q04DX003 (ip), vehicle: saline",104 % of control
same,T/C,"dose: 10.0 mg/kg/injection, schedule: Q01DX009 (ip), vehicle: saline",177 % of control
same,T/C,"dose: 12.5 mg/kg/injection, schedule: Q04DX003 (ip), vehicle: saline with Tween-80",159 % of control
same,T/C,"dose: 20.0 mg/kg/injection, schedule: Q01DX009 (ip), vehicle: saline",227 % of control
same,T/C,"dose: 25.0 mg/kg/injection, schedule: Q04DX003 (ip), vehicle: saline with Tween-80",218 % of control
O=C1OC(CO)CC1(O)CO (stereo not given),T/C,[8],99 % of control
same,T/C,[9],105 % of control
same,T/C,[10],104 % of control
CN(C)CCOc1ccccc1NC1=C(Cl)C(=O)C(Nc2ccccc2OCCN(C)C)=C(Cl)C1=O,T/C,"dose: 3.12 mg/kg/injection, schedule: Q01DX005 (ip), vehicle: saline",96 % of control and 97 % of control
same,T/C,"dose: 6.25 mg/kg/injection, schedule: Q01DX005 (ip), vehicle: saline",105 % of control and 106 % of control and 98 % of control
same,T/C,"dose: 12.5 mg/kg/injection, schedule: Q01DX005 (ip), vehicle: saline",110 % of control and 114 % of control and 116 % of control
same,T/C,"dose: 25.0 mg/kg/injection, schedule: Q01DX005 (ip), vehicle: saline",105 % of control and 117 % of control and 121 % of control
O=Cc1cccc(S(=O)(=O)O)c1,T/C,[8],100 % of control
same,T/C,[9],94 % of control
same,T/C,[10],102 % of control
O=c1c(Cc2c[nH]c3ccccc23)coc2ccccc12,T/C,[11],100 % of control
same,T/C,[12],90 % of control
same,T/C,[13],89 % of control
CS(C)=NS(C)(=O)=O,T/C,"dose: 100.0 mg/kg/injection, schedule: Q01DX001 (ip), vehicle: saline",113 % of control
same,T/C,"dose: 200.0 mg/kg/injection, schedule: Q01DX001 (ip), vehicle: saline",106 % of control
same,T/C,"dose: 400.0 mg/kg/injection, schedule: Q01DX001 (ip), vehicle: saline",107 % of control
Cc1ccc(NCCNCCO)c2c(=O)c3cc(O)ccc3sc12,T/C,[14],150 % of control
same,T/C,[15],156 % of control and 169 % of control
same,T/C,[16],103 % of control
CCCC[NH-].CCCC[NH-].[I][Pt+2][I],T/C,"dose: 0.78 mg/kg/injection, schedule: Q01DX009 (ip), vehicle: other",103 % of control and 120 % of control
O=C1NC(=O)C2(CCCc3ccc(N(CCO)CCO)cc32)N1 (stereo not given),T/C,"dose: 50.0 mg/kg/injection, schedule: Q01DX009 (ip), vehicle: DMSO",106 % of control
same,T/C,"dose: 100.0 mg/kg/injection, schedule: Q01DX009 (ip), vehicle: DMSO",103 % of control
same,T/C,"dose: 200.0 mg/kg/injection, schedule: Q01DX009 (ip), vehicle: DMSO",106 % of control
CCCCOP(O)(=S)OCCCC.[Yb],T/C,"dose: 100.0 mg/kg/injection, schedule: Q04DX002 (ip), vehicle: saline with Tween-80",96 % of control
same,T/C,"dose: 200.0 mg/kg/injection, schedule: Q04DX002 (ip), vehicle: saline with Tween-80",101 % of control
same,T/C,"dose: 400.0 mg/kg/injection, schedule: Q04DX002 (ip), vehicle: saline with Tween-80",99 % of control
O=c1c2ccccc2nc(-c2cccc([N+](=O)[O-])c2)n1O,T/C,[11],89 % of control
same,T/C,[12],100 % of control
same,T/C,[13],91 % of control
OC(Cc1ccccc1)c1ccccc1 (stereo not given),T/C,"dose: 31.25 mg/kg/injection, schedule: Q01DX009 (ip), vehicle: saline + Tween-80 + alcohol",107 % of control
same,T/C,"dose: 62.5 mg/kg/injection, schedule: Q01DX009 (ip), vehicle: saline + Tween-80 + alcohol",100 % of control
same,T/C,"dose: 100.0 mg/kg/injection, schedule: Q01DX009 (ip), vehicle: suspension in saline",104 % of control
same,T/C,"dose: 125.0 mg/kg/injection, schedule: Q01DX009 (ip), vehicle: saline + Tween-80 + alcohol",98 % of control
same,T/C,"dose: 200.0 mg/kg/injection, schedule: Q01DX009 (ip), vehicle: suspension in saline",98 % of control
same,T/C,"dose: 250.0 mg/kg/injection, schedule: Q01DX009 (ip), vehicle: saline + Tween-80 + alcohol",102 % of control
same,T/C,"dose: 400.0 mg/kg/injection, schedule: Q01DX009 (ip), vehicle: suspension in saline",98 % of control
Cn1c(C(=O)O)cc(=O)cc1C(=O)O,T/C,[14],100 % of control
same,T/C,[15],101 % of control
same,T/C,[16],95 % of control
same,T/C,[1],100 % of control
COc1ccc(C(c2c(O)c3ccccc3oc2=O)N2CCOCC2)c(OC)c1 (stereo not given),T/C,[11],99 % of control
same,T/C,[12],107 % of control
CCC(C)C(NC(=O)C1CCCN1C(=O)OCc1ccccc1)C(=O)O (stereo not drawn) (Cbz-Pro-Ile-OH; configuration not given here),T/C,[3],100 % of control
same,T/C,[4],106 % of control
same,T/C,"dose: 200.0 mg/kg/injection, schedule: Q01DX005 (ip), vehicle: saline with Tween-80",98 % of control
COSc1ccc([N+](=O)[O-])cc1[N+](=O)[O-],T/C,[15],95 % of control
same,T/C,[16],96 % of control
same,T/C,"dose: 25.0 mg/kg/injection, schedule: Q01DX009 (ip), vehicle: saline",98 % of control
same,T/C,[1],103 % of control
same,T/C,"dose: 50.0 mg/kg/injection, schedule: Q01DX009 (ip), vehicle: saline",102 % of control
same,T/C,[2],103 % of control
same,T/C,"dose: 100.0 mg/kg/injection, schedule: Q01DX009 (ip), vehicle: saline",108 % of control
same,T/C,"dose: 200.0 mg/kg/injection, schedule: Q01DX009 (ip), vehicle: saline",111 % of control
CN1C=C(C#N)CCC1Sc1ccc(Cl)cc1 (stereo not given),T/C,[11],105 % of control
same,T/C,[12],103 % of control
same,T/C,[13],104 % of control
O=Cc1ccccc1/C=C/C(=O)/C=C/c1ccccc1C=O,T/C,"dose: 12.5 mg/kg/injection, schedule: Q01DX005 (ip), vehicle: Klucel (hydroxypropylcellulose) (HPC)",105 % of control
same,T/C,"dose: 25.0 mg/kg/injection, schedule: Q01DX005 (ip), vehicle: Klucel (hydroxypropylcellulose) (HPC)",105 % of control
same,T/C,"dose: 50.0 mg/kg/injection, schedule: Q01DX005 (ip), vehicle: Klucel (hydroxypropylcellulose) (HPC)",107 % of control and 110 % of control
CCc1nnc2c(c(=O)n(C)c(=O)n2C)[n+]1[O-],T/C,"dose: 20.0 mg/kg/injection, schedule: Q01DX001 (ip), vehicle: Klucel (hydroxypropylcellulose) (HPC)",106 % of control
same,T/C,"dose: 40.0 mg/kg/injection, schedule: Q01DX001 (ip), vehicle: Klucel (hydroxypropylcellulose) (HPC)",106 % of control
same,T/C,"dose: 80.0 mg/kg/injection, schedule: Q01DX001 (ip), vehicle: Klucel (hydroxypropylcellulose) (HPC)",112 % of control
same,T/C,"dose: 100.0 mg/kg/injection, schedule: Q01DX001 (ip), vehicle: Klucel (hydroxypropylcellulose) (HPC)",109 % of control
NS(=O)(=O)c1ccc(NC(=O)CN(C(=O)C(F)(F)F)C2CCCC2)cc1,T/C,[5],113 % of control
same,T/C,[6],109 % of control
same,T/C,[7],109 % of control
